Measurements published in patent US12292380B2, “Integrated microfluidic device for capture and spectroscopic characterization of live cells under various treatment conditions” (CORNELL UNIVERSITY, priority 2018, dated 2025).

Assays:
A431 cells [1] = experiment: MEIRS measurement of the response of A431 cells to epidermal growth factor, PCA of reflectance spectra; type: cell-based; details: 40 nM EGF injected at t=240 min, time resolution 1 min
Method: (§1) The following method is used for monitoring a drug's effect of the cells. The method can be implemented using the same or similar detection unit 100, detection device 300, and detection system 10, as described above and shown in FIGS. 1 and 2-12. First, the metasurface 102 is assembled with the microfluidic chamber 302, and the cells are seeded on the metasurface 102 in culture media. The cells are then incubated until they are well-adhered on the metasurface 102. The metasurface 102 (with cells) is then transferred to a FTIR microscope 20 for continuous collection of IR spectra. […]
Referring briefly to FIG. 25, there are shown graphs of the resulting PCA scores/loadings obtained from A431 cells with the addition of epidermal growth factor (EGF). […] Specifically, 40 nM EGF was injected to the microfluidic measurement chamber 302 at t=240 min., while continuously monitored with time resolution of Δt=1 min. The measured reflectance spectra were analyzed using PCA. […] Although the biological interpretation of such signal is still not clear, it is hypothesized that the measured response corresponds to at least two processes in the cell, likely related to the cells' cytoskeletal reorganization in response of EGF.

A431 cells [2] = experiment: MEIRS monitoring of trypsinization (detachment of adherent cells from the metasurface), PCA of reflection spectra; type: cell-based; details: 0.025% trypsin at t=66 min, between t=66 min and t=100 min, time resolution 1 min
Method: as §1, with “spectra. Background spectra of the cells are collected for some time, before the drug to be tested is introduced to the cells via a microfluidic pump (such as a syringe pump 20 like that shown in FIG. 12).” for “spectra.”
Referring briefly to FIG. 24, there are shown contrast microscopy images of A431 cells on the metasurface 102 and graphs of the resulting PCA scores/loadings obtained from their spectra. The most robust adhesion-related effects, such as trypsinization (i.e., the detachment of adherent cells from the metasurface 102 by application of trypsin, a proteolytic enzyme that breaks down adhesion proteins), can be easily detected using MEIRS. […] Reflection spectra were analyzed using principal components analysis (PCA). […]

| Substance | PC1 score response to EGF (A431 cells [1]) | time for PC2 score to recover to the baseline level before the EGF injection (A431 cells [1]) | time evolution of the PC1 score (cell detachment from the metasurface) (A431 cells [2]) |
| --- | --- | --- | --- |
| epidermal growth factor (NSDSECPLSHDGYCLHDGVCMYIEALDKYACNCVVGYIGERCQYRDLKWWELR; Epidermal growth factor; UniProt P01133 971-1023, looked up) [EGF, epidermal growth factor (EGF)] | permanent change to the cell | about 200 min | – |
| trypsin | – | – | rapid detachment of the cells |
